Results published in patent US20070276037A1, “Cytoprotective Effects of Ethyl Pyruvate” (priority 2003, published 2007).

Tests used:
[1] = tested on: ischemic and nonischemic myocardium; assay: Myocardial lipid peroxidation measurements after ischemia and reperfusion; type: in vivo, rat
[2] = tested on: myocardial function; assay: Cardiac functional assessment following ischemia and reperfusion (pressure/volume conductance catheter, flow probe); type: in vivo, rat
[3] = tested on: myocardial function; assay: Cardiac function over the course of induced ischemia and reperfusion, percentage of baseline (FIGS. 5-7); type: in vivo; settings: p<0.05
Protocol: In order to determine overall effects of ethyl pyruvate on cardiac function, a number of parameters were evaluated over the course of induced ischemia, and reperfusion, as a function of time.

[4] = tested on: left ventricular infarction; assay: Planimetric determination of left ventricular infarction size (TTC/Evans blue); type: in vivo, rat; settings: 30 minutes ischemia and 30 minutes reperfusion; n=15; mean ± SEM
[5] = tested on: ischemic myocardium; assay: Myocardial ATP levels (luciferin/luciferase bioluminescence) in acute in vivo ischemia-reperfusion model; design: species or system rat; settings: n=5
[6] = 30 min ischemia / 30 min reperfusion, n=6, FIG. 2, mean ± SEM
[7] = after 30 min ischemia / 30 min reperfusion, n=15
[8] = following ischemia and reperfusion, n=15, mean ± SEM, FIG. 8

CCOC(=O)C(C)=O [ethyl pyruvate]
Lipid peroxide level, ischemic myocardium [1, 6]: 63.8 ± 3.3 nmol/g | Lipid peroxide level, nonischemic myocardium [1, 6]: 42.3 ± 4.8 nmol/g | Lipid peroxide level, ischemic myocardium ([1]; n=5, FIG. 3, mean ± SEM): 70.4 ± 2.6 nmol/g | Lipid peroxidation in ischemic myocardium versus control hearts ([1]; n=6, FIG. 2): decreased the level of lipid peroxidation | Lipid peroxidation in remote nonischemic myocardium versus control ([1]; n=6, FIG. 2): equivalent | Myocardial function (end systolic pressure volume relationships) versus control animals ([2]; FIG. 8): significantly improved myocardial function | Cardiac output [2, 7]: 26.7 ± 0.9 mL/min | Ejection fraction [2, 7]: 41.9 ± 3.8% | Heart rate [2, 7]: 183 ± 9.5 bpm | Maximum dP/dt [2, 7]: 3518 + 243 mm Hg/s | Maximum pressure [2, 7]: 86.6 ± 2.9 mm Hg | Minimum dP/dt [2, 7]: 2841 + 329 mm Hg/s | ESPVR slope [2, 8]: 1.09±0.22 | ESPVR x-axis intercept (x-int) [2, 8]: 4.1±19.9 | Composite ESPVR ([2]; regression composite, n=15, FIG. 8): 1.08 (ESV-4.0B) | dP/dtmax (contractility) as percentage of baseline, versus controls ([3]; after 8 minutes of ischemia and throughout reperfusion, FIG. 6): significantly greater | Maximum left ventricular (LV) pressure as percentage of baseline, versus controls ([3]; throughout ischemia and reperfusion, FIG. 5): significantly greater | Cardiac output as percentage of baseline, versus controls ([3]; throughout ischemia and reperfusion, FIG. 7): significantly greater | Left ventricular area at risk infarcted (infarction area/area at risk) [4]: 25.3%±1.5 | ATP level in ischemic region of heart ([5]; 10 minutes after initiation of ischemia, 1.5 mL/kg iv bolus of 28 mmol/L ethyl pyruvate in Ringer's, mean ± SEM): 87.6 ± 29.2 nmol/g | ATP levels versus controls ([5]; ischemic myocardium 10 minutes after initiation of ischemia, FIG. 1): Significantly higher levels of ATP
